Experimental data from ChEMBL document CHEMBL2311357, “Aminoalkyl derivatives of guanidine diaromatic minor groove binders with antiprotozoal activity” (J Med Chem, 2013).

Tested on: DNA
Assay: Binding affinity to calf thymus DNA in MES buffer assessed as change in melting temperature
Type: nucleic-acid assay
Settings: Bos taurus

SMILES | ΔTm
N=C(N)c1ccc(OCCCCCOc2ccc(C(=N)N)cc2)cc1 [PENTAMIDINE] | 10.6 °C

Tested on: not listed separately
Assay: Selectivity index, ratio of IC50 for rat L6 cells to IC50 for Plasmodium falciparum NF54
Type: toxicity, cell-based
Settings: L6 cells versus Plasmodium falciparum NF54, read-out: Ratio IC50

SMILES | selectivity ratio
N=C(N)Nc1ccc(Cc2ccc(NC(=O)CCCCCCCCCCN)cc2)cc1 | 15
N=C(N)Nc1ccc(Oc2ccc(NC(=O)CCCN)cc2)cc1 | 197
N=C(N)Nc1ccc(Oc2ccc(NC(=O)CCCCN)cc2)cc1 | 316
N=C(N)c1ccc(OCCCCCOc2ccc(C(=N)N)cc2)cc1 [PENTAMIDINE] | 56
N=C(N)Nc1ccc(Cc2ccc(NC(=O)CCCCCCCCCCCN)cc2)cc1 | 10
N=C(N)Nc1ccc(CCc2ccc(NC(=O)CCCCCCCCCCN)cc2)cc1 | 12
N=C(N)Nc1ccc(C(=O)c2ccc(NC(=O)CCCCCCCCCCCN)cc2)cc1 | 5
N=C(N)Nc1ccc(CCc2ccc(NC(=O)CCCN)cc2)cc1 | 116
N=C(N)Nc1ccc(Cc2ccc(NC(=O)CCCCN)cc2)cc1 | 179
N=C(N)Nc1ccc(Nc2ccc(NC(=O)CCCCCCCCCCCN)cc2)cc1 | 4
N=C(N)Nc1ccc(Cc2ccc(NC(=O)CCCN)cc2)cc1 | 79
N=C(N)Nc1ccc(Nc2ccc(NC(=O)CCCCCCCCCCN)cc2)cc1 | 41
N=C(N)Nc1ccc(CCc2ccc(NC(=O)CCCCN)cc2)cc1 | 103
N=C(N)Nc1ccc(Oc2ccc(NC(=O)CCCCCCCCCCN)cc2)cc1 | 44
N=C(N)Nc1ccc(C(=O)c2ccc(NC(=O)CCCCN)cc2)cc1 | 55
N=C(N)Nc1ccc(Oc2ccc(NC(=O)CCCCCCCN)cc2)cc1 | 913
N=C(N)Nc1ccc(Nc2ccc(NC(=O)CCCCN)cc2)cc1 | 153
N=C(N)Nc1ccc(Nc2ccc(NC(=O)CCCN)cc2)cc1 | 106
N=C(N)Nc1ccc(Oc2ccc(NC(=O)CCCCCCCCCCCN)cc2)cc1 | 13

Tested on: Trypanosoma brucei rhodesiense
Assay: Antitrypanosomal activity against Trypanosoma brucei rhodesiense STIB900 after 70 hrs by resazurin reduction assay
Type: functional, organism-based
Settings: STIB900, 70 h

SMILES | IC50
N=C(N)Nc1ccc(Oc2ccc(NC(=O)CCCCN)cc2)cc1 | 13.1 µM
N=C(N)c1ccc(OCCCCCOc2ccc(C(=N)N)cc2)cc1 [PENTAMIDINE] | 0.002 µM
N=C(N)Nc1ccc(CCc2ccc(NC(=O)CCCN)cc2)cc1 | 13.3 µM
N=C(N)Nc1ccc(Nc2ccc(NC(=O)CCCCCCCCCCCN)cc2)cc1 | 4.06 µM
N=C(N)Nc1ccc(Nc2ccc(NC(=O)CCCCCCCCCCN)cc2)cc1 | 85.4 µM
N=C(N)Nc1ccc(CCc2ccc(NC(=O)CCCCN)cc2)cc1 | 20.2 µM
N=C(N)Nc1ccc(C(=O)c2ccc(NC(=O)CCCCN)cc2)cc1 | 121 µM
N=C(N)Nc1ccc(Oc2ccc(NC(=O)CCCCCCCN)cc2)cc1 | 31.9 µM
Nc1nc(N)nc(Nc2ccc([As]3SCC(CO)S3)cc2)n1 (configuration not stated) [MELARSOPROL] | 0.0055 µM
N=C(N)Nc1ccc(Nc2ccc(NC(=O)CCCCN)cc2)cc1 | 57.7 µM

Tested on: not listed separately
Assay: Selectivity index, ratio of IC50 for rat L6 cells to IC50 for Trypanosoma brucei rhodesiense STIB900
Type: toxicity, cell-based
Settings: L6 cells versus Trypanosoma brucei rhodesiense STIB900, read-out: Ratio IC50

SMILES | selectivity ratio
N=C(N)Nc1ccc(Oc2ccc(NC(=O)CCCCN)cc2)cc1 | 3
N=C(N)c1ccc(OCCCCCOc2ccc(C(=N)N)cc2)cc1 [PENTAMIDINE] | 755
N=C(N)Nc1ccc(CCc2ccc(NC(=O)CCCN)cc2)cc1 | 10
N=C(N)Nc1ccc(Nc2ccc(NC(=O)CCCCCCCCCCCN)cc2)cc1 | 3
N=C(N)Nc1ccc(Nc2ccc(NC(=O)CCCCCCCCCCN)cc2)cc1 | 2
N=C(N)Nc1ccc(CCc2ccc(NC(=O)CCCCN)cc2)cc1 | 5
N=C(N)Nc1ccc(C(=O)c2ccc(NC(=O)CCCCN)cc2)cc1 | 1
N=C(N)Nc1ccc(Oc2ccc(NC(=O)CCCCCCCN)cc2)cc1 | 4
N=C(N)Nc1ccc(Nc2ccc(NC(=O)CCCCN)cc2)cc1 | 4

Tested on: not listed separately
Assay: Binding affinity to poly(dA-dT) DNA (unknown origin) in Tris-Hcl buffer assessed as change in melting temperature
Settings: not given

SMILES | ΔTm
N=C(N)c1ccc(OCCCCCOc2ccc(C(=N)N)cc2)cc1 [PENTAMIDINE] | 11.1 °C

Tested on: DNA
Assay: Binding affinity to calf thymus DNA in Tris-Hcl buffer assessed as change in melting temperature
Type: nucleic-acid assay
Settings: Bos taurus

SMILES | ΔTm
N=C(N)c1ccc(OCCCCCOc2ccc(C(=N)N)cc2)cc1 [PENTAMIDINE] | 20.6 °C

Tested on: L6
Assay: Cytotoxicity against rat L6 cells after 70 hrs by resazurin reduction assay
Type: cell-based
Settings: L6, 70 h

SMILES | IC50
N=C(N)Nc1ccc(Cc2ccc(NC(=O)CCCCCCCCCCN)cc2)cc1 | 30.3 µM
N=C(N)Nc1ccc(Oc2ccc(NC(=O)CCCN)cc2)cc1 | 173 µM
N=C(N)Nc1ccc(Oc2ccc(NC(=O)CCCCN)cc2)cc1 | 33.5 µM
N=C(N)c1ccc(OCCCCCOc2ccc(C(=N)N)cc2)cc1 [PENTAMIDINE] | 1.51 µM
N=C(N)Nc1ccc(Cc2ccc(NC(=O)CCCCCCCCCCCN)cc2)cc1 | 23.8 µM
N=C(N)Nc1ccc(CCc2ccc(NC(=O)CCCCCCCCCCN)cc2)cc1 | 70.6 µM
N=C(N)Nc1ccc(C(=O)c2ccc(NC(=O)CCCCCCCCCCCN)cc2)cc1 | 10.6 µM
N=C(N)Nc1ccc(CCc2ccc(NC(=O)CCCN)cc2)cc1 | 133 µM
N=C(N)Nc1ccc(Cc2ccc(NC(=O)CCCCN)cc2)cc1 | 105 µM
N=C(N)Nc1ccc(Nc2ccc(NC(=O)CCCCCCCCCCCN)cc2)cc1 | 11.9 µM
N=C(N)Nc1ccc(Cc2ccc(NC(=O)CCCN)cc2)cc1 | 207 µM
N=C(N)Nc1ccc(Nc2ccc(NC(=O)CCCCCCCCCCN)cc2)cc1 | 157 µM
N=C(N)Nc1ccc(CCc2ccc(NC(=O)CCCCN)cc2)cc1 | 109 µM
N=C(N)Nc1ccc(Oc2ccc(NC(=O)CCCCCCCCCCN)cc2)cc1 | 62.3 µM
N=C(N)Nc1ccc(C(=O)c2ccc(NC(=O)CCCCN)cc2)cc1 | 140 µM
N=C(N)Nc1ccc(Oc2ccc(NC(=O)CCCCCCCN)cc2)cc1 | 136 µM
N=C(N)Nc1ccc(Nc2ccc(NC(=O)CCCCN)cc2)cc1 | 223 µM
N=C(N)Nc1ccc(Nc2ccc(NC(=O)CCCN)cc2)cc1 | 127 µM
N=C(N)Nc1ccc(Oc2ccc(NC(=O)CCCCCCCCCCCN)cc2)cc1 | 22.4 µM

Tested on: Salmonidae
Assay: Binding affinity to salmon sperm DNA in 10 mM phosphate buffer assessed as change in melting temperature at 15 uM by thermal denaturation assay
Settings: not given

SMILES | ΔTm
N=C(N)Nc1ccc(Cc2ccc(NC(=N)N)cc2)cc1 | 8.1 °C
N=C(N)Nc1ccc(CCc2ccc(NC(=O)CCCCCCCCCCCN)cc2)cc1 | 1.1 °C
N=C(N)Nc1ccc(Cc2ccc(NC(=O)CCCCCCCCCCN)cc2)cc1 | 0 °C
N=C(N)Nc1ccc(Nc2ccc(N)cc2)cc1 | 2.1 °C
N=C(N)Nc1ccc(Oc2ccc(NC(=O)CCCN)cc2)cc1 | 1.2 °C
N=C(N)Nc1ccc(Oc2ccc(NC(=O)CCCCN)cc2)cc1 | 6 °C
N=C(N)Nc1ccc(C(=O)c2ccc(N)cc2)cc1 | 0 °C
N=C(N)Nc1ccc(Cc2ccc(NC(=O)CCCCCCCCCCCN)cc2)cc1 | 0.1 °C
N=C(N)Nc1ccc(CCc2ccc(NC(=O)CCCCCCCCCCN)cc2)cc1 | 1.1 °C
N=C(N)Nc1ccc(C(=O)c2ccc(NC(=O)CCCCCCCCCCCN)cc2)cc1 | 2.1 °C
N=C(N)Nc1ccc(Oc2ccc(N)cc2)cc1 | 2 °C
N=C(N)Nc1ccc(CCc2ccc(NC(=O)CCCN)cc2)cc1 | 5 °C
N=C(N)Nc1ccc(CCc2ccc(N)cc2)cc1 | 0.1 °C
N=C(N)Nc1ccc(Cc2ccc(NC(=O)CCCCN)cc2)cc1 | 4 °C
N=C(N)Nc1ccc(C(=O)c2ccc(NC(=O)CCCN)cc2)cc1 | 5.1 °C
N=C(N)Nc1ccc(Nc2ccc(NC(=O)CCCCCCCCCCCN)cc2)cc1 | 5 °C

SMILES | ΔTm
N=C(N)Nc1ccc(Cc2ccc(NC(=O)CCCN)cc2)cc1 | 1 °C
N=C(N)Nc1ccc(Nc2ccc(NC(=O)CCCCCCCCCCN)cc2)cc1 | 3.1 °C
N=C(N)Nc1ccc(C(=O)c2ccc(NC(=N)N)cc2)cc1 | 4.2 °C
N=C(N)Nc1ccc(Cc2ccc(N)cc2)cc1 | 3 °C
N=C(N)Nc1ccc(CCc2ccc(NC(=O)CCCCN)cc2)cc1 | 5.1 °C
N=C(N)Nc1ccc(Nc2ccc(NC(=N)N)cc2)cc1 | 8 °C
N=C(N)Nc1ccc(Oc2ccc(NC(=O)CCCCCCCCCCN)cc2)cc1 | 2 °C
N=C(N)Nc1ccc(C(=O)c2ccc(NC(=O)CCCCN)cc2)cc1 | 5.2 °C
N=C(N)Nc1ccc(Oc2ccc(NC(=O)CCCCCCCN)cc2)cc1 | 2.1 °C
N=C(N)Nc1ccc(Cc2ccc(NC(=O)CCCCCCCN)cc2)cc1 | 0.1 °C
N=C(N)Nc1ccc(CCc2ccc(NC(=O)CCCCCCCN)cc2)cc1 | 2 °C
N=C(N)Nc1ccc(Nc2ccc(NC(=O)CCCCN)cc2)cc1 | 6.1 °C
N=C(N)Nc1ccc(C(=O)c2ccc(NC(=O)CCCCCCCCCCN)cc2)cc1 | 2 °C
N=C(N)Nc1ccc(Nc2ccc(NC(=O)CCCCCCCN)cc2)cc1 | 2 °C
N=C(N)Nc1ccc(Nc2ccc(NC(=O)CCCN)cc2)cc1 | 1 °C
N=C(N)Nc1ccc(Oc2ccc(NC(=O)CCCCCCCCCCCN)cc2)cc1 | 2 °C

Tested on: unidentified
Assay: Binding affinity to poly(dA-dT) DNA (unknown origin) in PIPES buffer assessed as change in melting temperature
Settings: not given

SMILES | ΔTm
N=C(N)c1ccc(OCCCCCOc2ccc(C(=N)N)cc2)cc1 [PENTAMIDINE] | 12.8 °C

Tested on: Plasmodium falciparum
Assay: Antimalarial activity against erythrocytic stage of Plasmodium falciparum NF54 assessed as incorporation of [3H]hypoxanthine after 48 hrs by scintillation counting analysis
Type: functional, organism-based
Settings: not given

SMILES | IC50
N=C(N)Nc1ccc(Cc2ccc(NC(=O)CCCCCCCCCCN)cc2)cc1 | 2.02 µM
N=C(N)Nc1ccc(Oc2ccc(NC(=O)CCCN)cc2)cc1 | 0.88 µM
N=C(N)Nc1ccc(Oc2ccc(NC(=O)CCCCN)cc2)cc1 | 0.106 µM
N=C(N)c1ccc(OCCCCCOc2ccc(C(=N)N)cc2)cc1 [PENTAMIDINE] | 0.027 µM
N=C(N)Nc1ccc(Cc2ccc(NC(=O)CCCCCCCCCCCN)cc2)cc1 | 2.32 µM
N=C(N)Nc1ccc(CCc2ccc(NC(=O)CCCCCCCCCCN)cc2)cc1 | 5.79 µM
N=C(N)Nc1ccc(C(=O)c2ccc(NC(=O)CCCCCCCCCCCN)cc2)cc1 | 1.98 µM
N=C(N)Nc1ccc(CCc2ccc(NC(=O)CCCN)cc2)cc1 | 1.14 µM
N=C(N)Nc1ccc(Cc2ccc(NC(=O)CCCCN)cc2)cc1 | 0.589 µM
N=C(N)Nc1ccc(Nc2ccc(NC(=O)CCCCCCCCCCCN)cc2)cc1 | 2.71 µM
N=C(N)Nc1ccc(Cc2ccc(NC(=O)CCCN)cc2)cc1 | 2.62 µM
N=C(N)Nc1ccc(Nc2ccc(NC(=O)CCCCCCCCCCN)cc2)cc1 | 3.79 µM
N=C(N)Nc1ccc(CCc2ccc(NC(=O)CCCCN)cc2)cc1 | 1.06 µM
N=C(N)Nc1ccc(Oc2ccc(NC(=O)CCCCCCCCCCN)cc2)cc1 | 1.41 µM
N=C(N)Nc1ccc(C(=O)c2ccc(NC(=O)CCCCN)cc2)cc1 | 2.55 µM
N=C(N)Nc1ccc(Oc2ccc(NC(=O)CCCCCCCN)cc2)cc1 | 0.149 µM
N=C(N)Nc1ccc(Nc2ccc(NC(=O)CCCCN)cc2)cc1 | 1.46 µM
N=C(N)Nc1ccc(Nc2ccc(NC(=O)CCCN)cc2)cc1 | 1.2 µM
N=C(N)Nc1ccc(Oc2ccc(NC(=O)CCCCCCCCCCCN)cc2)cc1 | 1.71 µM
